# Experimental data from publication PMC7774954, “Interactomic affinity profiling by holdup assay: Acetylation and distal residues impact the PDZome-binding specificity of PTEN phosphatase” (PLoS ONE, 2020).
# pKd: −log10 of the molar value. *1 amine or outer side, *2 acyl side, *3 side chain or, on linkers, in order; H or OH if unused. Where a SMILES comes first, the peptide text is derived from it. The star is where a group is joined. X1 = O=C(CCCC[C@@H]1SC[C@@H]2NC(=O)N[C@@H]21)NCCCOCCOCCOCCCN*; Suc = O=C(CCC(=O)[*:2])[*:1]
# Key:
# [1] = target: T1, MAGI3 PDZ 2 (Homo sapiens, UniProt Q5TCQ9); experiment: Holdup assay, MAGI3-2; format: binding; settings: for BI: MAGI3-2
# T1 construct: made in house; host or cells: E. coli
# Procedure: (§1) The holdup assay was performed on a Tecan freedom Evo200 robot with 384-well plates in singlicate for the three 11-mer PTEN variants and the 13-mer PTEN peptide as described in [31, 32]. Briefly, prior to interaction assay, 2.5 μL of streptavidin resin was saturated in each well with 20 μL of biotinylated PBM peptides (42 μM) and then washed twice with an excess of free biotin, while the reference resin was incubated only with biotin. Right before the holdup experiment, the PDZ library was spiked with an internal standard of lysozyme. Then, the biotin- or PBM-saturated resin was incubated, each in a distinct well of a 384-well plate, with complete cell lysates diluted so that the concentration of the tag-PDZ present in the crude extract is adjusted at 4 μM. After a sufficient time to reach complex equilibrium (15 min.), a fast and mild filtration step is performed and the tag-PDZ concentrations were measured by capillary electrophoresis instrument (LabChip GXII, PerkinElmer, Massachusets, USA). Standard markers were used to convert migration time into molecular weight on the LabChip software and inappropriate molecular weight markers were corrected or excluded.
# (§2) For filtered data, the BI was extracted with the following equation (Eq 1) that estimates the depleted fraction after superimposition of the sample and reference electropherograms: BI=Iref−Ilig/Iref (1) where Iref and Ilig are the intensities of the tag-PDZ peaks measured, for each PDZ domain/PBM peptide interaction pair, in the biotin reference and the PBM electropherograms, respectively.
# (§3) BIs were transformed into dissociation constants (KD) using the following formula: KD=([PDZtot]−BI·[PDZtot])·([PBMtot]−BI·[PDZtot])/BI·[PDZtot] (2) where [PDZtot] and [PBMtot] correspond to the total concentrations of the PDZ domain (usually around 4 μM) and the PBM peptide used during the assay. Since the PBMtot concentration in the resin during the holdup assay parameter may differ from one peptide to another and remains unknown, it is impossible to directly convert BI values into KD constants. We systematically determined the KD constants for a subset of PDZ/PBM pairs by competitive FP. […] For each PBM, the average peptide concentration was calculated after outlier rejection based on the absolute distances from the median as compared to three times the standard deviation (3σ rule), with never more than 2 values rejected.
# [2] = target: T2, MAST1 PDZ 1 (Homo sapiens, UniProt Q9Y2H9); experiment: Holdup assay, MAST1-1; format: binding; settings: for BI: MAST1-1
# T2 construct: made in house; host or cells: E. coli
# T2 sequence (Q9Y2H9 967-1055 limits assumed): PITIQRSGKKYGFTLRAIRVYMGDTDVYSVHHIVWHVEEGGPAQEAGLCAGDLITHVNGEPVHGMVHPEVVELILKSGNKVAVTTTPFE
# Procedure: as §1, §2, §3
# [3] = target: T3, NHERF1 PDZ 1 (Homo sapiens, UniProt O14745); experiment: Holdup assay, NHERF1-1; format: binding; settings: for BI: PDZ domain NHERF1-1
# T3 construct: NHERF1-1 as the first PDZ domain of the NHERF1 protein; made in house; host or cells: E. coli
# T3 sequence (O14745 14-94 limits assumed): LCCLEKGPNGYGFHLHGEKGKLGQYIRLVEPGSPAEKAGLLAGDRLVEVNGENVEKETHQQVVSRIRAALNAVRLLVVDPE
# Procedure: as §1, §2, §3
# [4] = target: T4, PARD3 PDZ 3 (Homo sapiens, UniProt Q8TEW0); experiment: Holdup assay, PARD3-3; format: binding; settings: for KD (affinity measured by holdup): PARD3 PDZ 3, singlicate, BI converted to KD, tag-PDZ 4 μM, 15 min, nd: not detected in the holdup assay; for BI: PDZ domain PARD3-3
# T4 construct: made in house; host or cells: E. coli
# Procedure: as §1, §2, §3
# [5] = target: T5, SNX27 PDZ 1 (Homo sapiens, UniProt Q96L92); experiment: Holdup assay, SNX27-1; format: binding; settings: for BI: PDZ domain SNX27-1
# T5 construct: made in house; host or cells: E. coli
# Procedure: as §1, §2, §3
# [6] = target: T6, HTRA1-1 (Homo sapiens, UniProt Q92743); experiment: Holdup assay, HTRA1-1; format: binding
# T6 construct: His-MBP or His-TRX (N); made in house; host or cells: E. coli
# Procedure: as §1, §2
# [7] = target: T7, DFNB31-1 (Homo sapiens, UniProt Q9P202); experiment: Holdup assay, DFNB31-1; format: binding
# T7 sequence (Q9P202 140-223): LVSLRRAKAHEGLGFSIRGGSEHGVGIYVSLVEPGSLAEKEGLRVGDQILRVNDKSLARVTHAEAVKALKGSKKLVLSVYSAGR
# [8] = system: DLG1-3; experiment: Holdup assay, DLG1-3; format: binding, human
# [9] = target: DLG2-2 (Homo sapiens, UniProt Q15700); experiment: Holdup assay, DLG2-2; format: binding
# [10] = system: DVL1-1; experiment: Holdup assay, DVL1-1; format: binding, human
# [11] = system: FRMPD1-1; experiment: Holdup assay, FRMPD1-1; format: binding, human
# [12] = target: GOPC-1 (Homo sapiens, UniProt Q9HD26); experiment: Holdup assay, GOPC-1; format: binding
# [13] = system: GRIP2-7; experiment: Holdup assay, GRIP2-7; format: binding, human
# [14] = system: IL16-2; experiment: Holdup assay, IL16-2; format: binding, human
# [15] = system: IL16-3; experiment: Holdup assay, IL16-3; format: binding, human
# [16] = system: IL16-4; experiment: Holdup assay, IL16-4; format: binding, human
# [17] = system: INADL-1; experiment: Holdup assay, INADL-1; format: binding, human
# [18] = target: T8, LIMK2-1 (Homo sapiens, UniProt P53671); experiment: Holdup assay, LIMK2-1; format: binding
# T8 sequence (P53671 152-239): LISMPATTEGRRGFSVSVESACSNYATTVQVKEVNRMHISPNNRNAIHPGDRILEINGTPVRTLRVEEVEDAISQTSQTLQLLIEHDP
# [19] = system: LIN7C-1; experiment: Holdup assay, LIN7C-1; format: binding, human
# [20] = target: MAGI1-5 (Homo sapiens, UniProt Q96QZ7); experiment: Holdup assay, MAGI1-5; format: binding
# [21] = system: MAGI3-4; experiment: Holdup assay, MAGI3-4; format: binding, human
# [22] = system: MLLT4-1; experiment: Holdup assay, MLLT4-1; format: binding, human
# T1 sequence (Q5TCQ9 410-492 limits assumed): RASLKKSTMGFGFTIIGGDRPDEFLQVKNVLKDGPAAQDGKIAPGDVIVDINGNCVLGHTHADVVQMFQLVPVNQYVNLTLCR
# T4 sequence (Q8TEW0 590-677 limits assumed): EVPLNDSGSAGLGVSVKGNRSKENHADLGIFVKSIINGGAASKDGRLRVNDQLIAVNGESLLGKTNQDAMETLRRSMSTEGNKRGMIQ
# Sequence of DLG2-2 (Q15700 193-280): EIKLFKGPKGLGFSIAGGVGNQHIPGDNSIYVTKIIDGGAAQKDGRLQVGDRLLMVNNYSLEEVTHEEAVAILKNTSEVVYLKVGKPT
# T6 sequence (Q92743 365-467 limits assumed): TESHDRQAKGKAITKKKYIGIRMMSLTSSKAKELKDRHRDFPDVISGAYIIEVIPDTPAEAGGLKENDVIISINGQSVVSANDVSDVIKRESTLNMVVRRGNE
# Sequence of MAGI1-5 (Q96QZ7 970-1066): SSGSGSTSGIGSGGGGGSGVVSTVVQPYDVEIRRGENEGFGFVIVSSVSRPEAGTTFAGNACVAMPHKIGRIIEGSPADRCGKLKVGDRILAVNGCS
smiles,measurement,setting,value
CC[C@H](C)[C@H](NC(=O)[C@H](CCC(N)=O)NC(=O)[C@@H](NC(=O)[C@H](Cc1c[nH]cn1)NC(=O)[C@H](CCC(N)=O)NC(=O)[C@H](CC(=O)O)NC(=O)[C@H](CCC(=O)O)NC(=O)[C@H](CC(=O)O)NC(=O)CCC(=O)NCCCOCCOCCOCCCNC(=O)CCCC[C@@H]1SC[C@@H]2NC(=O)N[C@@H]21)[C@@H](C)O)C(=O)N[C@H](C(=O)N[C@@H](CCCCN)C(=O)N[C@H](C(=O)O)C(C)C)[C@@H](C)O [PTEN_11],BI,[1],0.094
same,pKd,[2],4.41
same,BI,[2],0.455
same,pKd,[3],4.48
same,BI,[3],0.494
same,KD (affinity measured by holdup),[4],160 µM
same,BI,[4],-0.078
same,pKd,[5],4.86
same,pKd,[6],4.32
same,BI,[6]; HTRA1-1,0.405
same,BI (binding intensity),"[6]; HTRA1-1, holdup, singlicate",0.41
same,BI,[7],0.108
same,BI,[8],0.044
same,LogKD,[8],3.519
same,BI,[9],0.168
same,BI,[10],-0.007
same,LogKD,[10],3.519
same,BI,[11],0.017
same,LogKD,[11],3.519
same,BI,[12],0.26
same,pKd,[12],4.03
same,BI,[13],-0.067
same,LogKD,[13],3.519
same,BI,[14],-0.132
same,LogKD,[14],3.519
same,BI,[15],0.004
same,LogKD,[15],3.519
same,BI,[16],-0.028
same,LogKD,[16],3.519
same,BI,[17],0.022
same,LogKD,[17],3.519
same,BI,[18],0.05
same,LogKD,[18],3.519
same,BI,[19],-0.041
same,LogKD,[19],3.519
same,BI,[20],0.536
same,pKd,[20],4.56
same,BI,[21],-0.092
same,LogKD,[21],3.519
same,BI,[22],-0.038
same,LogKD,[22],3.519
CC[C@H](C)[C@H](NC(=O)[C@H](CCC(N)=O)NC(=O)[C@@H](NC(=O)[C@H](Cc1c[nH]cn1)NC(=O)[C@H](CCC(N)=O)NC(=O)[C@H](CC(=O)O)NC(=O)[C@H](CCC(=O)O)NC(=O)[C@H](CC(=O)O)NC(=O)CCC(=O)NCCCOCCOCCOCCCNC(=O)CCCC[C@@H]1SC[C@@H]2NC(=O)N[C@@H]21)[C@@H](C)O)C(=O)N[C@H](C(=O)N[C@@H](CCCCNC(C)=O)C(=O)N[C@H](C(=O)O)C(C)C)[C@@H](C)O [PTEN_Ac],pKd,[1],4.41
same,BI,[1],0.405
same,pKd,[2],4.58
same,BI,[2],0.497
same,pKd,[3],4.87
same,BI,[3],0.652
same,BI,[4],0.104
same,pKd,[5],5.39
same,BI,[5],0.859
same,pKd,[6],4.99
same,BI,[6]; HTRA1-1,0.712
same,BI,[7],0.09
same,LogKD,[7],3.605
same,BI,[8],-0.088
same,LogKD,[8],3.605
same,BI,[9],0.329
same,pKd,[9],4.26
same,BI,[10],-0.016
same,LogKD,[10],3.605
same,BI,[11],-0.03
same,LogKD,[11],3.605
same,BI,[12],0.404
same,pKd,[12],4.41
same,BI,[13],-0.07
same,LogKD,[13],3.605
same,BI,[14],-0.157
same,LogKD,[14],3.605
same,BI,[15],-0.166
same,LogKD,[15],3.605
same,BI,[16],0.014
same,LogKD,[16],3.605
same,BI,[17],0.004
same,LogKD,[17],3.605
same,BI,[18],-0.087
same,LogKD,[18],3.605
same,BI,[19],0.012
same,LogKD,[19],3.605
same,BI,[20],0.647
same,pKd,[20],4.86
same,BI,[21],-0.101
same,LogKD,[21],3.605
CC[C@H](C)[C@H](NC(=O)[C@H](CCC(N)=O)NC(=O)[C@@H](NC(=O)[C@H](Cc1c[nH]cn1)NC(=O)[C@H](CCC(N)=O)NC(=O)[C@H](CC(=O)O)NC(=O)[C@H](CCC(=O)O)NC(=O)[C@H](CC(=O)O)NC(=O)[C@H](Cc1ccccc1)NC(=O)[C@@H]1CCCN1C(=O)CCC(=O)NCCCOCCOCCOCCCNC(=O)CCCC[C@@H]1SC[C@@H]2NC(=O)N[C@@H]21)[C@@H](C)O)C(=O)N[C@H](C(=O)N[C@@H](CCCCN)C(=O)N[C@H](C(=O)O)C(C)C)[C@@H](C)O [PTEN_13] ({X1-Suc}-PFDEDQHTQITKV-OH),pKd,[1],4.66
same,BI,[1],0.414
same,pKd,[2],5.12
same,KD (affinity measured by holdup),[4],96 µM
same,BI,[4],0.051
same,pKd,[5],5.25
same,BI,[5],0.717
same,pKd,[6],4.28
same,BI,[6]; HTRA1-1,0.235
same,BI,[7],0.145
same,BI,[8],-0.033
same,BI,[9],0.054
same,LogKD,[9],3.826
same,BI,[10],-0.013
same,BI,[11],0.081
same,BI,[12],0.199
same,pKd,[12],4.19
same,BI,[13],-0.039
same,BI,[14],-0.025
same,BI,[15],-0.001
same,BI,[16],0.014
same,BI,[17],0.086
same,BI,[18],0.152
same,BI,[19],-0.105
same,BI,[20],0.274
same,pKd,[20],4.38
same,BI,[21],-0.112
same,BI,[22],0.007
